{
  "source": "ChEMBL document CHEMBL1201862",
  "about": "“PubChem BioAssay data set” (2004)",
  "key": {"[1]": {"biological_target": "T1, Endoribonuclease toxin MazF (Escherichia coli K-12, UniProt P0AE70)", "T1 sequence (P0AE70 whole entry)": "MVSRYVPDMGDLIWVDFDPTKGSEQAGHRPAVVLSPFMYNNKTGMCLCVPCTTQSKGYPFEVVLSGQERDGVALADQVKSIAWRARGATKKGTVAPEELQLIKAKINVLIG", "experiment": "MazEF toxin-antitoxin RNase activation – biochemical, fluorescence, single-stranded RNA substrate, SAR follow-up (AID 588603)", "assay_type": "functional"}, "MEF": {"system": "MEF", "experiment": "SAR analysis of small molecule cytotoxicity of MazEF TA System activators in embryonic fibroblast (MEF) cells. [Related pubchem assays (depositor defined):AID504720, AID504743]", "assay_type": "functional", "settings": "Mus musculus"}, "[2]": {"biological_target": "T1, Endoribonuclease toxin MazF", "experiment": "substrate-only fluorescence increase artefacts – biochemical, single-stranded RNase substrate, counter-screen for MazEF activator project, dose response (AID 588502)", "assay_type": "functional"}, "[3]": {"biological_target": "T1, Endoribonuclease toxin MazF", "experiment": "activation of MazEF endoribonuclease cleavage – biochemical, fluorescence, single-stranded RNA substrate, uHTS hits, dose response (AID 588481)", "assay_type": "functional"}, "[4]": {"biological_target": "T1, Endoribonuclease toxin MazF", "experiment": "SAR analysis of small molecule activators of the MazEF TA System via a fluorescence-based single-stranded RNase assay counterscreen. [Related pubchem assays (depositor defined):AID504720, AID504743]", "assay_type": "functional"}, "[5]": {"biological_target": "Beta-2 adrenergic receptor (Homo sapiens, UniProt P07550)", "sequence (P07550 whole entry)": "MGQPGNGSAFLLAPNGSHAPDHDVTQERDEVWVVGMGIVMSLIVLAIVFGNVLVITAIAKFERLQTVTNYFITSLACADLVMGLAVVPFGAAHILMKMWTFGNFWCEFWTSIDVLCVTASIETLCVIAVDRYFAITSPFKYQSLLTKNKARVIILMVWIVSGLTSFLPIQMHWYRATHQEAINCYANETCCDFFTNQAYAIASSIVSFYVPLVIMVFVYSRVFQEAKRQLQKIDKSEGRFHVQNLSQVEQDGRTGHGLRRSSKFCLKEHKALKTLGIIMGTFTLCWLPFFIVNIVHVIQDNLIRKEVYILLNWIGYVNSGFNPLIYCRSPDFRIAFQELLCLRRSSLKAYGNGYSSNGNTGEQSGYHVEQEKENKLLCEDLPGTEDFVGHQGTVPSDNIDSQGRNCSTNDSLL", "experiment": "ADRB2 activation measured by internalization – cell-based, FAP fluorogen, flow cytometry, cherry pick 1, dose response (AID 588763)", "assay_type": "functional"}, "[6]": {"experiment": "DRD fibroblast viability loss – cell-based, non-viral oncogenic, luminescence, dose response (AID 1934)", "assay_type": "functional", "settings": "Homo sapiens"}, "INS1": {"system": "INS1", "experiment": "INS-1E survival protection against cytokine death – cell-based, luminescence, retest, dose response (AID 449756);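 further: cell death triggered by IL-1 beta plus TNF-alpha plus IFN-gamma mixture; protective hits raise ATP signal compared with cytokine alone wells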", "assay_type": "functional", "settings": "Rattus norvegicus"}, "BJ [7]": {"system": "BJ", "experiment": "BJ-TERT fibroblast viability loss – cell-based, RAS-independent, luminescence, dose response (AID 1933)", "assay_type": "functional", "settings": "Homo sapiens"}, "BJ [8]": {"system": "BJ", "experiment": "cells", "assay_type": "functional, cell-based", "settings": "Homo sapiens"}, "Cytochrome P450 2C19": {"biological_target": "Cytochrome P450 2C19 (Homo sapiens, UniProt P33261)", "sequence (P33261 whole entry)": "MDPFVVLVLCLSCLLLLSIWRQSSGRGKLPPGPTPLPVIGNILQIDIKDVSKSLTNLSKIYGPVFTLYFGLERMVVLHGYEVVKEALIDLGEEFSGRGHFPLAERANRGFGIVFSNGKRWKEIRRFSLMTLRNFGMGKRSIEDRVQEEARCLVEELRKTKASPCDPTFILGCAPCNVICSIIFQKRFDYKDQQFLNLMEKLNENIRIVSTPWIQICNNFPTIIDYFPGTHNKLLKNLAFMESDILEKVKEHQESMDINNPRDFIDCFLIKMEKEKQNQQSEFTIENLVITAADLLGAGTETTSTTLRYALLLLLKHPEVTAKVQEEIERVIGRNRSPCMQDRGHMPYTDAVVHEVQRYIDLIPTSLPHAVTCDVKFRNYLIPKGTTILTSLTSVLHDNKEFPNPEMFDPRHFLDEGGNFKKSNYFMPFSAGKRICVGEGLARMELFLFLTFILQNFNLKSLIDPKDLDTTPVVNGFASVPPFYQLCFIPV", "experiment": "Cytochrome panel assay with activity outcomes. Panel member name: p450-cyp2c19 Compounds with AC50 equal or less than 10 uM are considered active", "assay_type": "functional", "settings": "read-out: AC50"}, "BJ [9]": {"system": "BJ", "experiment": "growth inhibition of engineered Ras-driven BJ cells – cell-based, alamar blue fluorescence, cherrypicked samples, dose response (AID 2631)", "assay_type": "functional", "settings": "Homo sapiens"}, "Cytochrome P450 2C9": {"biological_target": "Cytochrome P450 2C9 (Homo sapiens, UniProt P11712)", "sequence (P11712 whole entry)": "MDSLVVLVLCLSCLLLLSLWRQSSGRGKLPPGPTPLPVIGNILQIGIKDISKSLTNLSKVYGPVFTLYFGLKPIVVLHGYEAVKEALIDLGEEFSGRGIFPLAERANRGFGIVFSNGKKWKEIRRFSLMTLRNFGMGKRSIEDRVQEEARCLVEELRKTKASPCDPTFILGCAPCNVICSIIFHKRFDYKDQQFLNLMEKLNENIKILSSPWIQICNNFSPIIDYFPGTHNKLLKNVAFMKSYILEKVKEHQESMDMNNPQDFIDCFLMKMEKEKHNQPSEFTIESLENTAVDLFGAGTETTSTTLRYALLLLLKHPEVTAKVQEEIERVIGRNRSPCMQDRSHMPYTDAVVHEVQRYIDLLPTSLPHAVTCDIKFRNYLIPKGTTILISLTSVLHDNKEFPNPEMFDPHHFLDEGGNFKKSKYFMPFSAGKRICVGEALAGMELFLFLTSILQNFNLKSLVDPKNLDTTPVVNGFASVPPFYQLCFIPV"}, "BJ [10]": {"system": "BJ", "experiment": "BJ-TERT-LT-ST fibroblast viability loss – cell-based, RAS-independent, luminescence, dose response (AID 1935);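 further: BJ fibroblasts immortalized with TERT plus LT and ST oncogenes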", "assay_type": "functional", "settings": "Homo sapiens"}, "[11]": {"biological_target": "T2, Mannose-6-phosphate isomerase (Homo sapiens, UniProt P34949)", "T2 sequence (P34949 whole entry)": "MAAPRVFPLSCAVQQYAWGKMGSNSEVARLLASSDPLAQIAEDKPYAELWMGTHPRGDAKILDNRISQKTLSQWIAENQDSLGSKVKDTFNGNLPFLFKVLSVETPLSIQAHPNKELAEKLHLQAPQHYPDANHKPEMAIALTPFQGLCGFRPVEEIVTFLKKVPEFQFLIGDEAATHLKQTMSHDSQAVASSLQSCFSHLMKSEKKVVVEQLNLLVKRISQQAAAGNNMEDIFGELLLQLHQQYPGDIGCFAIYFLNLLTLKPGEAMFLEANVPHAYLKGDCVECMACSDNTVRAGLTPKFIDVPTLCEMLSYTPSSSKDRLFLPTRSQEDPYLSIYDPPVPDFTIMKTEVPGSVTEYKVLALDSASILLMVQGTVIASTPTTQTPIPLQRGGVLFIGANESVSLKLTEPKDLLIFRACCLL", "experiment": "MPI inhibition at elevated mannose 6-phosphate – biochemical, fluorescence intensity, high mannose 6-phosphate, primary screen (AID 1220)"}, "Vero": {"system": "Vero", "experiment": "viability of Vero cells under compound – cytotoxicity control for flavivirus capping enzyme inhibitors (AID 588742)", "assay_type": "functional", "settings": "Chlorocebus sabaeus"}, "Protein Tat": {"biological_target": "Protein Tat (Human immunodeficiency virus type 1 group M subtype B (isolate HXB2)(HIV-1), UniProt P04608)", "sequence (P04608 whole entry)": "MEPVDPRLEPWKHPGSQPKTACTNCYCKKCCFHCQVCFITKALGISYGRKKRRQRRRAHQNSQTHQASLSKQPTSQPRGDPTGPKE", "assay_type": "functional"}, "[12]": {"experiment": "viability of PTEN-deleted HCT116 cells – cell-based, HCT116 PTEN knockout, dose response (AID 1047);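 further: cells exposed to compound for 60 hours before readout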", "assay_type": "functional"}, "[13]": {"experiment": "viability of HCT116 lacking mutant beta-catenin – cell-based, human colon tumor, dose response (AID 1045);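 further: cells exposed to compound for 60 hours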", "assay_type": "functional"}, "[14]": {"experiment": "viability loss in THP-1 monocytes – THP-1 cells, cytotoxicity control for Vif-APOBEC3G degradation inhibitor project, dose response (AID 1117359)", "assay_type": "functional", "settings": "THP-1"}},
  "note": "Calls of active or inactive are those of the source.",
  "data": [
    {"molecule": "N#Cc1ccc(N2C(=O)[C@@H]3C(C(=O)c4ccc5ccccc5n4)=NN[C@@H]3C2=O)cc1", "values": [
      {"measurement": "EC50", "setting": "[1]", "result": "7.74 µM (active)"},
      {"measurement": "CC50", "setting": "MEF", "result": "> 99 µM (inactive)"},
      {"measurement": "EC50", "setting": "[2]", "result": "0.271 µM (active)"},
      {"measurement": "EC50", "setting": "[3]", "result": "15.1 µM (active)"},
      {"measurement": "EC50", "setting": "[4]", "result": "> 99 µM (inactive)"}
    ]},
    {"molecule": "O=C(Cc1ccccc1)NC1(Cc2ccc(O)cc2)CCCCC1", "values": [
      {"measurement": "EC50", "setting": "[5]", "result": "7.47 µM (active)"}
    ]},
    {"molecule": "O=C(COc1ccc([N+](=O)[O-])cc1)Nc1ccc(C(=O)NCc2cccnc2)cc1", "values": [
      {"measurement": "EC50", "setting": "[6]", "result": "> 150 µM (not active)"},
      {"measurement": "AC50", "setting": "INS1", "result": "< 0.195 µM (active)"},
      {"measurement": "EC50", "setting": "BJ [7]", "result": "> 150 µM (not active)"},
      {"measurement": "EC50", "setting": "BJ [8]", "result": "12.8 µM (inconclusive)"},
      {"measurement": "AC50", "setting": "Cytochrome P450 2C19", "result": "7.94 µM (inconclusive)"},
      {"measurement": "EC50", "setting": "BJ [9]", "result": "2.51 µM (inconclusive)"},
      {"measurement": "AC50", "setting": "Cytochrome P450 2C9", "result": "22.4 µM (inconclusive)"},
      {"measurement": "EC50", "setting": "BJ [10]", "result": "> 150 µM (not active)"}
    ]},
    {"molecule": "CCOc1cccc(CNc2ccc(O)cc2)c1OCc1ccc(Cl)cc1", "values": [
      {"measurement": "IC50", "setting": "[11]", "result": "> 50 µM (not active)"},
      {"measurement": "CC50", "setting": "Vero", "result": "> 40 µM (active)"},
      {"measurement": "IC50", "setting": "Protein Tat", "result": "86 µM (inconclusive)"},
      {"measurement": "EC50", "setting": "[12]", "result": "25.2 µM (active)"},
      {"measurement": "EC50", "setting": "[13]", "result": "29.4 µM (active)"},
      {"measurement": "CC50", "setting": "[14]", "result": "37 µM (active)"}
    ]}
  ]
}
